Laboratory results published in ChEMBL document CHEMBL1201862, “PubChem BioAssay data set” (2004).
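In this assay, cells in 96-well plates receive the compound at five concentrations for 48 hours. Endpoints are linearly interpolated between the surrounding concentrations. At the GI50, growth is halved.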 Active and inactive are the calls of the source. Rule as the data show it: active = GI50 up to about 1.1 µM and inactive = higher.

Legend:
Test in all cases: NCI anticancer screen, dose series, 48 h
[1] = system: 786-0
[2] = system: COLO 205
[3] = system: Hs-578T
[4] = system: K562
[5] = system: MCF7
[6] = system: MDA-MB-435
[7] = system: MOLT-4
[8] = system: Malme-3M
[9] = system: OVCAR-3
[10] = system: PC-3
[11] = system: SF-295
[12] = system: SF-539
[13] = system: SK-MEL-28
[14] = system: SK-MEL-2
[15] = system: SN12C
[16] = system: SR
[17] = system: SW-620
[18] = system: TK-10
[19] = system: U-251
[20] = system: UO-31

Measured: GI50

CC(C)(C)c1ccc(O)c(CN(Cc2c(O)ccc3ccccc23)C2CCCCC2)c1
inactive: [1] 15.5 µM | [2] 15.7 µM | [3] 27.4 µM | [4] 16.9 µM | [5] 17.1 µM | [6] 19.2 µM | [7] 18.6 µM | [8] 17.4 µM | [9] 17.4 µM | [10] 14.5 µM | [11] 18.3 µM | [12] 16.4 µM | [13] 20.5 µM | [14] 16.7 µM | [15] 17.3 µM | [16] 16 µM | [17] 24.4 µM | [18] 15.8 µM | [19] 16 µM | [20] 14.7 µM

N#CC(c1ccc(O)cc1)N1CCN(C(C#N)c2ccc(O)cc2)CC1 (stereo not given)
inactive: [1] > 64.1 µM | [2] > 100 µM | [3] 27.7 µM | [4] > 100 µM | [5] > 100 µM | [6] > 100 µM | [7] > 100 µM | [8] > 100 µM | [9] > 100 µM | [10] > 100 µM | [11] 38.3 µM | [12] 34.7 µM | [13] 67.3 µM | [14] 68.2 µM | [15] > 87.1 µM | [16] > 100 µM | [17] > 100 µM | [18] > 100 µM | [19] 22.3 µM | [20] > 100 µM

CC1=C(C)CC2C(=O)N(c3cc(C(C)(C)C)ccc3C(C)(C)C)C(=O)C2C1 (stereo not given)
active: [5] 0.776 µM
inactive: [1] 64.9 µM | [2] > 100 µM | [3] 5.82 µM | [4] > 100 µM | [6] > 100 µM | [7] > 100 µM | [8] 4.55 µM | [9] 66.2 µM | [10] 62.2 µM | [11] 48.2 µM | [12] 78.3 µM | [13] > 100 µM | [14] > 100 µM | [15] > 100 µM | [16] > 100 µM | [17] > 100 µM | [18] 66.1 µM | [19] 47.1 µM | [20] > 100 µM

COC(=O)c1ccccc1C1CN=NC12Cc1ccc(C)cc1C2=O (stereo not given)
inactive: [1] > 100 µM | [2] 60.8 µM | [3] 41.5 µM | [4] 46.6 µM | [5] 72.8 µM | [6] 33.3 µM | [7] 47.2 µM | [8] 86.5 µM | [9] 38.6 µM | [10] 37.1 µM | [11] 46.8 µM | [12] > 100 µM | [13] 67.8 µM | [14] 28.5 µM | [15] 58.6 µM | [16] 63.8 µM | [17] 45.2 µM | [18] > 100 µM | [19] 41.6 µM | [20] 34.7 µM

Cc1ccc(-c2nc(N/N=C/c3ccc(O)cc3)c3ccccc3n2)cc1
inactive: [1] 22.8 µM | [2] 23.4 µM | [3] 35.7 µM | [4] 22.8 µM | [5] 10.2 µM | [6] 10.8 µM | [7] 20.5 µM | [8] 13.8 µM | [9] 4.29 µM | [10] 9.06 µM | [11] 17.9 µM | [12] 27.3 µM | [13] 17.8 µM | [14] 15.8 µM | [15] 8.2 µM | [16] 39.4 µM | [17] 19 µM | [18] 24.3 µM | [19] 19.8 µM | [20] 5.47 µM

CCOc1ccc(C(c2c(O)c3ccccc3oc2=O)c2c(O)c3ccccc3oc2=O)cc1
inactive: [1] 78.2 µM | [2] > 100 µM | [3] 37.6 µM | [4] 53.8 µM | [5] 46.6 µM | [6] 70.3 µM | [7] 33.6 µM | [8] 48.8 µM | [9] 43.8 µM | [10] 29.6 µM | [11] > 100 µM | [12] 48 µM | [13] 80 µM | [14] 24.1 µM | [15] 43.8 µM | [16] 26 µM | [17] 79.4 µM | [18] 49.5 µM | [19] 32.7 µM | [20] 20.5 µM
